From PubChem BioAssay (NCI) come the findings set out here.

Among the test systems are DLD-1 colon; DMS 114 small cell lung; LXFL 529 NSCLC; KM12 colon; SNB-78 CNS; HOP-18 NSCLC; MDA-MB-435; T-47D breast; DU-145 prostate; NCI/ADR-RES ovarian.
Common to all, as to test: inhibition of tumour cell growth, NCI panel, 48 h

Values joined by “and” are separate entries in the source; they are usually repeats but may differ in a detail not shown here. Equal values may be shown once.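 Results reflect a 48-hour exposure of cells in 96-well plates to compound at five concentrations. GI50 is the concentration that inhibits growth by half. Definition used: TGI = concentration required for complete inhibition of growth.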 Where only a bound is given, the exact number is not on record here.

Turning to `CCCC(OCC)(OCC)OCC`, the TGI in the test on DLD-1 colon, in the test on DMS 114 small cell lung, with LXFL 529 NSCLC, in the test on KM12 colon, in the test with SNB-78 CNS and in the test with HOP-18 NSCLC was above 100 µM throughout.
Regarding `CCOC(=O)C1Cc2c(ccc(OC)c2OC)C(=O)C1N` (configuration not stated), the TGI with DLD-1 colon, with DMS 114 small cell lung, in the test with LXFL 529 NSCLC, in the test on KM12 colon, with SNB-78 CNS and in the test with HOP-18 NSCLC was above 100 µM each time.
Consider `C/C(CC(=O)CCCC(=O)Nc1ccc(Cl)cc1Cl)=N/NC(=O)CC#N`, for which the TGI with DLD-1 colon, in the test on DMS 114 small cell lung, in the test on LXFL 529 NSCLC, in the test with KM12 colon, in the test on SNB-78 CNS and in the test on HOP-18 NSCLC was above 100 µM throughout.
`CC(=O)[O-].CC(=O)[O-].[Mn+2].c1ccc(/C(=N\Nc2ccccn2)c2ccccn2)cc1`: the TGI stood at 18.7 µM in the test with MDA-MB-435; 22.7 µM with DLD-1 colon; 0.0212 µM in the test on DMS 114 small cell lung; 17.2 µM in the test on LXFL 529 NSCLC; 13.7 µM with KM12 colon; 12 µM in the test on T-47D breast. In addition, the TGI was 11.6 µM with DU-145 prostate, 0.0989 µM with NCI/ADR-RES ovarian and 14.3 µM in the test with HOP-18 NSCLC. In the test on NCI/ADR-RES ovarian, the GI50 was 0.0251 µM.
For `COc1cccc(/C=C(/C(=O)O)c2cc(OC)c(OC)c(OC)c2)c1`, the TGI in the test on DLD-1 colon, with DMS 114 small cell lung, in the test with LXFL 529 NSCLC, in the test on KM12 colon, in the test on SNB-78 CNS and with HOP-18 NSCLC was above 100 µM each time.
Turning to `Nn1c(CCCl)nc2c(Br)cc(Br)cc2c1=O`, the TGI is above 79.4 µM with DLD-1 colon; 50.5 µM in the test with DMS 114 small cell lung; 69.3 µM with LXFL 529 NSCLC; 38.1 µM in the test with KM12 colon; above 100 µM in the test with SNB-78 CNS; above 100 µM with HOP-18 NSCLC.
On to `COc1cc(C(=O)C/C(CCC(=O)Nc2ccccc2[N+](=O)[O-])=N\NC(=O)C(N)=O)ccc1O`, for which the TGI with DLD-1 colon, in the test with DMS 114 small cell lung, in the test with LXFL 529 NSCLC, in the test on KM12 colon, with SNB-78 CNS and with HOP-18 NSCLC was above 100 µM throughout.
In the case of `CC1=CC2=C(OCO1)C(=O)c1ccccc1C2=O`, the TGI in the test on MDA-MB-435 was 2.77 µM; in the test with DLD-1 colon, 81.9 µM; in the test on DMS 114 small cell lung it was 12.1 µM; with LXFL 529 NSCLC it was 52.8 µM; with KM12 colon, 21.9 µM; in the test on T-47D breast, 7.47 µM. The TGI with DU-145 prostate was 3.67 µM; in the test on SNB-78 CNS, above 100 µM; with NCI/ADR-RES ovarian, 9.94 µM; in the test on HOP-18 NSCLC, 27.1 µM.
Take `COC(=O)C1=CC(O)CCC1c1ccc(OC)cc1` (configuration not stated): the TGI in the test on DLD-1 colon, in the test on DMS 114 small cell lung, in the test on LXFL 529 NSCLC, in the test on KM12 colon, with SNB-78 CNS and in the test on HOP-18 NSCLC was above 100 µM in each case.
Take `O=c1c(O)c(-c2ccc(O)c(O)c2)oc2cc(O)ccc12`: the TGI in the test with DLD-1 colon was above 100 µM; with DMS 114 small cell lung, 55.1 µM; in the test on LXFL 529 NSCLC, above 87.7 µM; in the test on KM12 colon, 31 µM; in the test on SNB-78 CNS it was 67.2 µM; in the test with HOP-18 NSCLC it was 52.2 µM.
Consider `CC[O-].CC[O-].[O-]c1ccccc1C=Nc1ccccc1.[O-]c1ccccc1C=Nc1ccccc1.[Ti+4]`, for which the GI50 in the test on DLD-1 colon was above 100 µM; in the test on DMS 114 small cell lung it was 75.2 µM; in the test on LXFL 529 NSCLC, 2.94 µM; with KM12 colon it was 26.7 µM; with SNB-78 CNS it was above 100 µM; with HOP-18 NSCLC, above 100 µM. Further, the TGI in the test on DLD-1 colon, in the test on DMS 114 small cell lung, in the test with LXFL 529 NSCLC, in the test on KM12 colon, in the test with SNB-78 CNS and in the test with HOP-18 NSCLC was above 100 µM throughout.
For the compound `O=C(OC(C(=O)O)C(OC(=O)c1ccccc1)C(=O)O)c1ccccc1` (configuration not stated) (tested in a mixture with another compound), the TGI in the test with MDA-MB-435 was 62.7 µM; in the test with DLD-1 colon it was above 100 µM; in the test with KM12 colon, above 100 µM; with T-47D breast, above 100 µM; with DU-145 prostate, above 100 µM; in the test with SNB-78 CNS it was above 100 µM. Further, the TGI is above 100 µM in the test on NCI/ADR-RES ovarian; 9.71 µM and 84.2 µM with HOP-18 NSCLC.
Turning to `C=C(C)C(=O)NC(N)=NC#N`, the TGI is 259 µM in the test with MDA-MB-435; 261 µM with DLD-1 colon; > 82.7 µM and 136 µM in the test on DMS 114 small cell lung; 191 µM in the test with LXFL 529 NSCLC; 286 µM in the test with KM12 colon; 56.3 µM and 206 µM in the test on T-47D breast. Moreover, the TGI in the test with DU-145 prostate was 291 µM; in the test on SNB-78 CNS, 398 µM; with NCI/ADR-RES ovarian it was > 83.8 µM and 267 µM; in the test on HOP-18 NSCLC it was > 57.4 µM and 240 µM. Further, the GI50 with DLD-1 colon is 111 µM; with KM12 colon it was 147 µM; in the test with T-47D breast, 57.5 µM; with DU-145 prostate, 145 µM; with SNB-78 CNS, 167 µM; with NCI/ADR-RES ovarian, 125 µM. Moreover, the GI50 in the test with HOP-18 NSCLC is 115 µM.
Regarding `C[C@]12CCC3c4ccc(OC(=O)c5ccccc5)cc4CC[C@H]3C1CC[C@@H]2OC(=O)C12OC1CCC2=O` (some centres not stated), the TGI stood at 6.37 µM in the test on DLD-1 colon; 6.7 µM in the test with DMS 114 small cell lung; 3.76 µM in the test on LXFL 529 NSCLC; 13.6 µM in the test with KM12 colon; 14.1 µM in the test on SNB-78 CNS; 10.7 µM with HOP-18 NSCLC.
For `CC(=O)CC(=O)N(CCN(C(=O)CC(C)=O)c1ccccc1)c1ccccc1`, the TGI in the test with DLD-1 colon, in the test with DMS 114 small cell lung, in the test on LXFL 529 NSCLC, with KM12 colon, with SNB-78 CNS and in the test with HOP-18 NSCLC was above 100 µM in each case.
With `Cc1nc(NC(=S)NC(=O)c2ccc(Cl)c(Cl)c2)sc1C(=O)/C=C/c1ccccc1[N+](=O)[O-]`, the TGI in the test on DLD-1 colon is above 100 µM; with LXFL 529 NSCLC, 74.3 µM; with KM12 colon it was 39.3 µM; in the test on SNB-78 CNS, 91.2 µM; with HOP-18 NSCLC it was 41.7 µM.
`C[C@]12CCC[C@H](OC=O)C1(O)C[C@H](C(=O)O)CC2` (some centres not stated): the TGI with DLD-1 colon, in the test on DMS 114 small cell lung, in the test on LXFL 529 NSCLC, with KM12 colon, in the test with SNB-78 CNS and with HOP-18 NSCLC was above 100 µM in each case.
As to `N=c1nc(N)c2cc3c(N)nc(=N)c3cc12`, the TGI with MDA-MB-435 was above 100 µM; in the test on DLD-1 colon it was above 100 µM; in the test with DMS 114 small cell lung it was 23.8 µM; in the test with LXFL 529 NSCLC, above 100 µM; in the test with KM12 colon, above 100 µM; with T-47D breast, 47.8 µM. The TGI in the test with DU-145 prostate was above 100 µM; in the test on SNB-78 CNS, 48.5 µM; with HOP-18 NSCLC it was 41.5 µM.
For the compound `CN1CCC23c4c5ccc(O)c4OC2C(=NN=C2CCC4(O)C6Cc7ccc(O)c8c7C4(CCN6C)C2O8)CCC3(O)C1C5` (configuration not stated), the TGI in the test on DLD-1 colon, in the test with DMS 114 small cell lung, in the test with LXFL 529 NSCLC, in the test with KM12 colon and in the test with HOP-18 NSCLC was above 100 µM in each case.
Take `O=C(O)/C(Cl)=C(\Cl)Nc1cccc(C(F)(F)F)c1`: the TGI in the test with DLD-1 colon, in the test on DMS 114 small cell lung, in the test on LXFL 529 NSCLC, with SNB-78 CNS and in the test with HOP-18 NSCLC was above 100 µM throughout.
